Tests used:
2E9 MAb [1] = experiment: Indirect competitive ELISA measuring equilibrium association constant and association/dissociation rates of MAb-hapten complexes; type: binding, mouse; conditions: for KA times higher than KA measured for the 4-OHE2-1-N3Ade adduct: comparator 4-OHE2-1-N3Ade; for KA higher by a factor than that obtained for NAcCys: comparator NAcCys; for Association constant, KA / Association rate, kon / Dissociation rate, koff: in the presence of 2E9 MAb, indirect competitive ELISA; for Association constant, KA: equilibrium; for 1/koff: dissociation time; for KA times smaller than the KA obtained for 4-OHE1-2-NAcCys: comparator 4-OHE1-2-NAcCys
Protocol: The equilibrium constant and the kinetic off- and on-rates for the analyte and the reporter molecule of interest must be known. The equilibrium association constants (KA) and association (kon)/dissociation (koff) rates for 4-OHE2-2-NAcCys and 4-OHE2-2-NAcCys-SAMSA conjugates are given in Table I, which also provides information on other closely related analytes, such as 4-OHE2, NAcCys, and 4-OHE2-1-N3Ade adduct. All values listed in Table I were determined using an indirect competitive ELISA. The value of KA for 4-OHE2-2-NAcCys-SAMSA was confirmed by an equilibrium dialysis method.
An ELISA was used to measure the association/dissociation rate constants of MAb-hapten (i.e., MAb-4-OHE1-2-NAcCys) and/or association/dissociation rate constants of related analytes. The MAb and suitable hapten(s) were mixed in solution to initiate the equilibrium reaction. At different time intervals, the amount of the free MAb in the reaction mixture was determined by an indirect ELISA. The association rate constants for 4-OHE1-2-NAcCys, 4-OHE1, NAcCys, and 4-OHE1-1-N3Ade were estimated by nonlinear regression against an equation introduced from the derivation of the mass balance of MAb-antigen/related analyte interaction (Zhuang et al., J Biosci. Bioeng. 92, 330-336 (2001); Foote et al., Proc. Natl. Acad. Sci. USA 92, 1254-1256 (1995); Goldbaum et al., J Immunol. 162, 6040-6045 (1999); Northrup et al., Proc. Natl. Acad. Sci. USA 89, 3338-3342 (1992)).
To determine the bound fraction of the antibody by ELISA, 3 rows and 8 columns of the microtiter plate were incubated with sufficient concentration of antigen to saturate the wells. After washing the plate with PBS 3 times, 4 rows of the plate including 3 rows coated with the antigen were blocked with 1% non-fat dried milk, 0.01% Triton-X100 in PBS for 3 hrs. Then the plate was washed with PBS with Triton-X100 (0.01%) 3 times. Equal volumes (160 μL) of the antigen (or related analyte) and PBS were mixed, and the mixture was put into the first well of the row that was blocked but not coated with the antigen (non-coated row).
The average absorbance of this column (Ab) measured in the last step of the ELISA corresponds to the blank. Equal volumes (160 μL) of the antibody solution and PBS were mixed, and the mixture was put into the last (8th) well of the non-coated row. The average absorbance of this column (Ao) corresponds to the total concentration of the antibody. Equal volumes of the antibody solution and antigen (or related analyte) solution were mixed quickly, and the mixture was immediately put into the second well of the non-coated row. At appropriate time intervals (after 10, 20, 23, 26 and 28 min), a new mixture of the antibody and hapten (or related analyte) solution were mixed quickly, immediately put into the wells of the non-coated row from the […]. The average absorbance of these columns (At) corresponds to the concentration of the free antibody at t=30, 20, 10, 7, 4 and 2 min for the […], respectively. Two min after the 7th well was filled with the mixture, using an eight-channel Pipetman, the mixtures on the row were quickly dispensed into the 3 rows that were coated with the antigen (or related analyte, 50 μL each). After 1 min the mixture was discarded and the plate was washed with PBS with Triton-X100 (0.01%) 3 times. The secondary antibody solution (HRP-conjugated) was added to the plate (50 μL), and the plate was incubated at 37° C. for 1 h. After washing with PBS and Triton-X100 (0.01%) 3 times, the substrate was added to the plate (50 μL). After incubation for 10 min at room temperature, the absorbance at 405 nm was measured.
Association constants KA for 4-OHE1 and NAcCys were also determined and are 2.5·10^5 and 2.1·10^6 M^−1, respectively. […] When the time required for the equilibrium reaction between the antigen and the antibody is shorter, one can detect or quantify the hapten faster. […]

2E9 MAb [2] = experiment: Competitive ELISA for 4-OHE1-2-NAcCys: inhibition of 2E9 MAb binding to immobilized antigen; parameters: species or system mouse; conditions: for IC50: wells coated with OA-4-OHE1(E2)-2-NAcCys-16a,β-MCC, regression analysis, read-out: I50 (quantity producing 50% inhibition of MAb binding in the ELISA)
Protocol: FIG. 5 is a diagram depicting inhibition profiles obtained for 4-OHE1-2-NAcCys (curve 1); NAcCys (curve 2), 4-OHE1(E2) (curve 3), and 4-OHE1-1-N3Ade (curve 4) using the 2E9 MAb in the competitive ELISA assay. Competitor-mediated reduction of MAb binding was expressed as % inhibition vs. untreated MAb and then plotted as a function of log quantity of competitor per well of the ELISA plate.
Wells were coated with OA-40HE1(E2)-2-NAcCys-16a,β-MCC, 500 ng/mL, 50 μL/well overnight, and blocked with 1% non-fat dried milk, 0.01% Triton-X100 in PBS for 2 h at 37° C. Competition curves were generated as described below. MAb and competitor molecules 4-OHE1(E2)-2-NAcCys (1), NAcCys (2), 4-OHE1(E2) (3), and 4-OHE1(E2)-1-N3Ade (4) were added to the wells at the same time and allowed to react with immobilized antigen for one hour before secondary antibody was added. The plates were washed with PBS with Triton-X100 (0.01%). Secondary antibody labeled with horseradish peroxidase (HRP) was used according to manufacturer's (BRL, Inc.) recommendations and incubated at 37° C. for 1 h. Plates were washed again, 2,2′-azino-bis(3-ethylbenzthiazoline-6-sulfonic acid) (ABTS) was added, and the plates were read at 405 nm on a BioRad-EL800 plate reader. The specificity of the 2E9 MAb raised against 4-OHE1(E2)-2-NAcCys was confirmed, and cross-reactivity to a number of related compounds was established.
The results are shown in FIG. 5, where the competitor-mediated reduction of MAb binding is expressed as % inhibition versus untreated MAb and plotted as a function of the concentration of competitor in the wells of the ELISA plate. Inhibition curves were developed for several analytes of interest; the I50's (quantity producing 50% inhibition of MAb binding in the ELISA) of these analytes were determined by regression analysis. […] For example, the I50 of 4-OHE-1-N3Ade (I50=1.5·10^−5M) was about 2700 times higher than the I50 of the 4-OHE1-2-NAcCys (I50=5.6·10^−9M).

[3] = test system: MAb against 4-OHE2-1-N3Ade; experiment: Association constant of the MAb developed against 4-OHE2-1-N3Ade; type: binding

| Molecule | Association constant, KA (2E9 MAb [1]) [M⁻¹] | 1/koff (2E9 MAb [1]; 2E9 MAb) [s] | Association rate, kon (2E9 MAb [1]) [M⁻¹ s⁻¹] | Dissociation rate, koff (2E9 MAb [1]) [s⁻¹] | KA times smaller than the KA obtained for 4-OHE1-2-NAcCys (2E9 MAb [1]; 2E9 MAb) | other results |
| --- | --- | --- | --- | --- | --- | --- |
| 4-OHE1(E2)-2-NAcCys | 1.8e+08 |  |  |  |  | KA times higher than KA measured for the 4-OHE2-1-N3Ade adduct (2E9 MAb [1]; 2E9 MAb): about 2,700; KA higher by a factor than that obtained for NAcCys (2E9 MAb [1]; 2E9 MAb): 100 |
| 4-OHE2-2-NAcCys-SAMSA [4-OHE2-NAcCys-SAMSA] | 5e+07 | 185 | 270000 | 0.0054 |  |  |
| C[C@]12CC[C@@H]3c4c(-n5cnc(=N)c6[nH]cnc65)cc(O)c(O)c4CC[C@H]3[C@@H]1CCC2=O [4-OHE1-1-N3Ade] |  |  |  |  | 2700 | I50 times higher than the I50 of 4-OHE1-2-NAcCys (2E9 MAb [2]; comparator 4-OHE1-2-NAcCys): about 2700; IC50 (2E9 MAb [2]): 15 µM; Association constant, KA (2E9 MAb [1]; listed as 4-OHE1-N3Ade): 67000 M⁻¹ |
| CC(=O)NC(CSc1cc2c(c(O)c1O)CCC1C2CCC2(C)C(=O)CCC12)C(=O)O (stereo not drawn) [4-OHE1-2-NAcCys] |  |  |  |  |  | IC50 (2E9 MAb [2]): 0.0056 µM |
| C[C@]12CC[C@@H]3c4ccc(O)c(O)c4CC[C@H]3[C@@H]1CCC2=O [4-OHE1] | 250000 |  |  |  | about 720 |  |
| C[C@]12CC[C@@H]3c4c(-n5cnc(=N)c6[nH]cnc65)cc(O)c(O)c4CC[C@H]3[C@@H]1CC[C@@H]2O [4-OHE2-1-N3Ade] | 67000 | 10 | 6500 | 0.097 |  | KA [3]: 2e+08 M⁻¹ |
| CC(=O)N[C@@H](CSc1cc2c(c(O)c1O)CC[C@@H]1[C@@H]2CC[C@]2(C)[C@@H](O)CC[C@@H]12)C(=O)O [4-OHE2-NAcCys, 4-OHE2-2-NAcCys] | 1.8e+08 | 391 | 460000 | 0.0026 |  | dissociation time 1/koff (2E9 MAb [1]; 2E9 MAb): ~6.5 min; KA times higher than KA measured for the 4-OHE2-1-N3Ade adduct (2E9 MAb [1]; 2E9 MAb): about 2,700; KA higher by a factor than that obtained for NAcCys (2E9 MAb [1]; 2E9 MAb): 100; Association constant, KA (2E9 MAb [1]; listed as 4-OHE2-2-NAcCys): 1.8e+08 M⁻¹ |
| C[C@]12CC[C@@H]3c4ccc(O)c(O)c4CC[C@H]3[C@@H]1CC[C@@H]2O [4-OHE2] | 250000 | 17 | 15000 | 0.062 |  |  |
| CC(=O)N[C@@H](CS)C(=O)O [NAcCys, N-acetylcysteine] | 2.1e+06 | 27 | 77000 | 0.037 | ~86 |  |

Source: patent US20070148712A1, “Breast cancer and prostate cancer assessment” (Iowa State University Research Foundation, Inc., priority 2005, published 2007)
